For one series, the system named is liver. Briefly: in vivo DNP-MRI of the liver after intravenous CmP: redox metabolic rate (free radical consumption speed). The arrangement: species or system mouse. From the text:
C57BL6 mice (female, 5 weeks old) were purchased from Charles River Laboratories Japan, Inc. (Yokohama, Japan), and were acclimated for 1 week before starting the experiment. Five mice were housed per cage and were fed with a methionine-choline deficient diet or a normal diet in a room where the temperature and the circadian rhythm were controlled. Each of a methionine-choline deficient diet group (NASH model mouse group) and a normal diet group (normal mouse group) was divided into 5 groups to be subjected to DNP-MRI measurement at 1, 2, 4, 6 and 8 weeks, and blood collection, autopsy and liver tissue collection were performed to evaluate the pathological conditions.
A mouse (NASH model mouse) was anesthetized with isoflurane (4% for introduction, 2% for maintenance) and was fixed, with a pressure-sensitive tape for skin, on a local detector for liver measurement (a surface coil) and a holder with the stomach side faced downward. The body temperature of the mouse was 37±1° C. during the experiment. The mouse was transferred to a DNP-MRI resonance apparatus and the apparatus was set such that the whole liver was a measurement target, and then, CmP (Carbamoyl-PROXYL, redox contrast agent) was intravenously injected into the NASH mode mouse, and the DRI-MRI measurement was started.
TR: 1200 ms; TE: 25 ms; TEPR: 600 ms; number of phase-encoding gradient steps: 64; […]; FOV: 48 mm×48 mm; matrix size: 64×64 (in-plane resolution: 0.75 mm); slice thickness: 30 mm; number of average: 1; and scanning time: 79 s. OMRI data was analyzed by using Image J Software Package (http://rsb.info.nih.gov/ij/).
Besides, the mouse group fed with the normal diet (the normal mouse group) was similarly subjected as a control to the DRI-MRI evaluation.
With respect to the NASH model mouse group, the DNP-MRI measurement was performed 1 week (MCD1), 2 weeks (MCD2), 4 weeks (MCD4), 6 weeks (MCD6) and 8 weeks (MCD8) after feeding the methionine-choline deficient diet (MCD) was started, and the redox metabolic rate of the CmP radical in the liver was calculated.
Also with respect to the normal mouse group, the DNP-MRI measurement was similarly performed 1 week (ND1), 2 weeks (ND2), 4 weeks (ND4), 6 weeks (ND6) and 8 weeks (ND8) after feeding the normal diet was started, and the redox metabolic rate of the CmP radical in the liver was calculated.

For series [1], the system named is homogenate solution of the liver.
Series [2] shares this test system. The series can be described thus: redox metabolism of CmP by liver homogenate solution, cytoplasmic and blood components (FIG. 7). The settings on record: KCN (mitochondrial electron transport chain inhibitor) added.

Like-named read-outs stand apart in the source and are kept apart here.

Regarding `CC1(C)CC(C(N)=O)C(C)(C)N1[O]` (stereo not shown) [CmP, Carbamoyl-PROXYL], the “disappearance of the CmP (image intensity in region of interest)” value with liver (NASH model mouse compared with normal mouse) was “significantly slower”. In the series on liver (NASH model mouse group (methionine-choline deficient diet), from 1 week (MCD1), versus normal mouse), the “redox metabolic rate (disappearing rate) in the liver” value is “significant decrease”. Further, in the series on liver (NASH model mouse, epigastrium DNP-MRI images, FIG. 3), the “time after administration at which the CmP radical still remained” value is 13 min. Also, in the series with liver (normal mice (control), epigastrium DNP-MRI images, FIG. 3), the “time after administration at which the CmP radical had mostly disappeared” value came to 5.5 min. Also, in series [1], the “reaction with a cytoplasmic component or a blood component” value is reported as “minimally reacts” and the “redox metabolism by a homogenate solution of the liver” value was “redox metabolized”. In addition, in series [2], the “redox metabolism by a homogenate solution of the liver” value was “metabolism is stopped”.

The values above are taken from patent US11484258B2, “Free radical consumption speed information acquisition method and NASH determination method” (KYUSHU UNIVERSITY, NATIONAL UNIVERSITY CORPORATION, priority 2016, dated 2022).
